# pIC50: −log10 of the molar value.
# Target: MAPK14 (UniProt Q16539)
# Assay: Inhibition of MAPK14 Kinase Activity
# MAPK14, sequence (Q16539 whole entry, looked up): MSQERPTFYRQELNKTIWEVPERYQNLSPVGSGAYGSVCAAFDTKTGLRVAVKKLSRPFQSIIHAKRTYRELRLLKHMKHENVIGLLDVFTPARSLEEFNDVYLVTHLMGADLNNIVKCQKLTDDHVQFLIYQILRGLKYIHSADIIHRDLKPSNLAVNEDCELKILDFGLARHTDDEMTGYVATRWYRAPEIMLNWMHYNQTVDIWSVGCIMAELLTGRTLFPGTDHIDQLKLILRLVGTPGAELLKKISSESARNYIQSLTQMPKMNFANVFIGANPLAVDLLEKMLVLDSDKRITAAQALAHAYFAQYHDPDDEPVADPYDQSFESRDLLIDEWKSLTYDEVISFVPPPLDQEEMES
row,Structure (SMILES),pIC50
1,COc1ccc(-c2cccc(N(Cc3ccccc3F)C(N)=O)n2)cc1,< 4.00
2,NC(=O)N(Cc1ccccc1Cl)c1cccc(-c2ccc(F)cc2)n1,< 4.00
3,Cc1ccccc1-c1cccc(N(Cc2ccccc2F)C(N)=O)n1,6.05
4,NC(=O)N(Cc1c(F)cccc1F)c1ccc(CO)c(-c2ccc(F)cc2F)n1,5.80
5,NC(=O)N(Cc1ccccc1)c1cccc(-c2ccccc2Cl)n1,5.55
6,COc1ccccc1-c1cccc(N(Cc2ccccc2F)C(N)=O)n1,< 4.00
7,NC(=O)N(Cc1ccc(Cl)cc1Cl)c1cccc(-c2ccc(Cl)cc2)n1,4.00
8,Cc1cc(F)ccc1-c1nc(N(Cc2c(F)cccc2F)C(N)=O)ccc1CO,5.66
9,Cc1ccccc1-c1cccc(N(Cc2cccc(F)c2)C(N)=O)n1,6.12
10,NC(=O)N(Cc1ccccc1F)c1cccc(-c2ccc(F)cc2)n1,< 4.00
11,COc1ccccc1-c1cccc(N(Cc2ccccc2Cl)C(N)=O)n1,< 4.00
12,NC(=O)N(Cc1ccccc1F)c1ccc(CO)c(-c2ccccc2Cl)n1,6.00
13,NC(=O)N(Cc1cccc(F)c1)c1cccc(-c2ccccc2Cl)n1,5.95
14,NC(=O)N(Cc1ccc(F)cc1)c1cccc(-c2ccccc2Cl)n1,5.95
15,NC(=O)N(Cc1ccccc1F)c1cccc(-c2ccc(Cl)cc2)n1,< 4.00
16,Cc1cc(C)cc(-c2cccc(N(Cc3ccccc3Cl)C(N)=O)n2)c1,< 4.00
17,NC(=O)N(Cc1ccccc1Cl)c1cccc(-c2cccc(F)c2)n1,4.10
18,Cc1ccccc1-c1cccc(N(Cc2ccccc2Cl)C(N)=O)n1,6.06
19,Cc1ccccc1-c1cccc(N(CCc2ccccc2)C(N)=O)n1,6.01
20,Cc1cc(F)ccc1-c1cccc(N(Cc2cccc(F)c2)C(N)=O)n1,5.90

# Results, then the compound that gave them:
row,pIC50,Structure (SMILES)
1,4.45,NC(=O)N(Cc1ccccc1Cl)c1cccc(-c2cc(F)ccc2F)n1
2,< 4.00,NC(=O)N(Cc1ccccc1Cl)c1cccc(-c2ccc(Cl)cc2)n1
3,< 4.00,Cc1cc(F)ccc1-c1cccc(N(Cc2ccccc2Cl)C(N)=O)n1
4,4.60,NC(=O)N(Cc1ccc(Cl)cc1Cl)c1cccc(-c2ccccc2Cl)n1
5,4.00,Cc1cc(F)ccc1-c1nc(N(Cc2c(Cl)cccc2Cl)C(N)=O)ccc1CO
6,< 4.00,Cc1ccccc1-c1nc(N(Cc2c(Cl)cccc2Cl)C(N)=O)ccc1CO
7,6.02,NC(=O)N(Cc1ccccc1F)c1cccc(-c2ccccc2Cl)n1
8,5.50,Cc1ccccc1-c1cccc(N(Cc2c(F)cccc2F)C(N)=O)n1
9,5.67,Cc1cc(F)ccc1-c1cccc(N(Cc2c(Cl)cccc2Cl)C(N)=O)n1
10,5.55,Cc1cc(F)ccc1-c1cccc(N(Cc2c(F)cccc2F)C(N)=O)n1
11,< 4.00,NC(=O)N(Cc1c(Cl)cccc1Cl)c1cccc(-c2ccccc2Cl)n1
12,< 4.00,NC(=O)N(Cc1c(Cl)cccc1Cl)c1ccc(CO)c(-c2ccccc2Cl)n1
13,4.90,NC(=O)N(Cc1c(Cl)cccc1Cl)c1cccc(-c2c(F)cccc2F)n1
14,< 4.00,NC(=O)N(Cc1ccccc1Cl)c1cccc(-c2ccccc2F)n1
15,5.05,Cc1ccccc1-c1cccc(N(Cc2c(Cl)cccc2Cl)C(N)=O)n1
16,< 4.00,NC(=O)N(Cc1c(F)cccc1F)c1ccc(CO)c(-c2ccccc2Cl)n1
17,6.05,NC(=O)N(Cc1ccccc1Cl)c1cccc(-c2ccccc2Cl)n1

# Source: the Kinase Knowledgebase extract (Sharma et al. 2016)
